Measurements from the supplement of paper PMC10307832.

Tests used:
Assay in all cases: relative viability (nuclei count vs DMSO), 5 days (fraction); higher = more cells survive
CAP-232 + Luminespib = compound: C[C@H]([C@@H](C(=O)N)NC(=O)[C@@H]1CSSC[C@@H](C(=O)N[C@H](C(=O)N[C@@H](C(=O)N[C@H](C(=O)N1)CCCCN)CC2=CNC3=CC=CC=C32)CC4=CC=C(C=C4)O)NC(=O)[C@@H](CC5=CC=CC=C5)N)O [CAP-232] + CCNC(=O)c1noc(-c2cc(C(C)C)c(O)cc2O)c1-c1ccc(CN2CCOCC2)cc1 [Luminespib] (partner 0.01 µM)
How it was run: (§1)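 Lung cancer cell lines were pin-tool dosed in 1536-well plates on the day after seeding, with either a lone drug or a fixed anchor-drug dose plus five library-drug doses (not always all listed) in √10 steps. Nuclei were counted on 4× images after 5 days. Relative viability is the ratio of treated-well to vehicle-well nuclei counts, with each value a median of duplicate plates.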

CAP-232 + AZD7762 = compound: C[C@H]([C@@H](C(=O)N)NC(=O)[C@@H]1CSSC[C@@H](C(=O)N[C@H](C(=O)N[C@@H](C(=O)N[C@H](C(=O)N1)CCCCN)CC2=CNC3=CC=CC=C32)CC4=CC=C(C=C4)O)NC(=O)[C@@H](CC5=CC=CC=C5)N)O [CAP-232] + NC(=O)Nc1cc(-c2cccc(F)c2)sc1C(=O)N[C@H]1CCCNC1 [AZD7762] (partner 0.2 µM)
How it was run: as §1

CAP-232 + Vorinostat = compound: C[C@H]([C@@H](C(=O)N)NC(=O)[C@@H]1CSSC[C@@H](C(=O)N[C@H](C(=O)N[C@@H](C(=O)N[C@H](C(=O)N1)CCCCN)CC2=CNC3=CC=CC=C32)CC4=CC=C(C=C4)O)NC(=O)[C@@H](CC5=CC=CC=C5)N)O [CAP-232] + O=C(CCCCCCC(=O)Nc1ccccc1)NO [Vorinostat] (partner 1 µM)
How it was run: as §1

CAP-232 + OSI-027 = compound: C[C@H]([C@@H](C(=O)N)NC(=O)[C@@H]1CSSC[C@@H](C(=O)N[C@H](C(=O)N[C@@H](C(=O)N[C@H](C(=O)N1)CCCCN)CC2=CNC3=CC=CC=C32)CC4=CC=C(C=C4)O)NC(=O)[C@@H](CC5=CC=CC=C5)N)O [CAP-232] + COc1cccc2cc(-c3nc([C@H]4CC[C@H](C(=O)O)CC4)n4ncnc(N)c34)[nH]c12 [OSI-027] (partner 0.5 µM)
How it was run: as §1

CAP-232 + Trametinib = compound: C[C@H]([C@@H](C(=O)N)NC(=O)[C@@H]1CSSC[C@@H](C(=O)N[C@H](C(=O)N[C@@H](C(=O)N[C@H](C(=O)N1)CCCCN)CC2=CNC3=CC=CC=C32)CC4=CC=C(C=C4)O)NC(=O)[C@@H](CC5=CC=CC=C5)N)O [CAP-232] + CC(=O)Nc1cccc(-n2c(=O)n(C3CC3)c(=O)c3c(Nc4ccc(I)cc4F)n(C)c(=O)c(C)c32)c1 [Trametinib] (partner 0.02 µM)
How it was run: as §1

Cell Line	relative viability (CAP-232 + Luminespib; first compound 0.4 µM)	relative viability (CAP-232 + Luminespib; first compound 1.265 µM)	relative viability (CAP-232 + Luminespib; first compound 4 µM)	relative viability (CAP-232 + Luminespib; first compound 12.65 µM)	relative viability (CAP-232 + AZD7762; first compound 0.4 µM)	relative viability (CAP-232 + AZD7762; first compound 1.265 µM)	relative viability (CAP-232 + AZD7762; first compound 4 µM)	relative viability (CAP-232 + AZD7762; first compound 12.65 µM)	relative viability (CAP-232 + Vorinostat; first compound 0.4 µM)	relative viability (CAP-232 + Vorinostat; first compound 1.265 µM)	relative viability (CAP-232 + Vorinostat; first compound 4 µM)	relative viability (CAP-232 + Vorinostat; first compound 12.65 µM)	relative viability (CAP-232 + OSI-027; first compound 0.4 µM)	relative viability (CAP-232 + OSI-027; first compound 1.265 µM)	relative viability (CAP-232 + OSI-027; first compound 4 µM)	relative viability (CAP-232 + OSI-027; first compound 12.65 µM)	relative viability (CAP-232 + Trametinib; first compound 0.4 µM)	relative viability (CAP-232 + Trametinib; first compound 1.265 µM)	relative viability (CAP-232 + Trametinib; first compound 4 µM)	relative viability (CAP-232 + Trametinib; first compound 12.65 µM)
NCI-H1944	0.709	0.695	0.78	0.667	0.516	0.476	0.452	0.367	0.614	0.673	0.559	0.552	0.379	0.388	0.403	0.392	0.353	0.437	0.404	0.422
NCI-H1975	0.256	0.195	0.195	0.185	0.892	0.711	0.712	0.442	0.781	0.758	0.763	0.449	0.856	0.646	0.91	0.487	0.368	0.262	0.743	0.225
NCI-H1993	0.735	0.882	0.99	0.831	0.756	0.702	0.694	0.633	0.702	0.802	0.791	0.749	0.604	0.539	0.544	0.492	0.443	0.491	0.589	0.429
NCI-H2085	0.472	0.459	0.425	0.462	1.04	1.03	0.988	0.964	0.852	0.819	0.779	0.832	0.786	0.726	0.934	0.594	0.514	0.586	0.532	0.569
NCI-H2087	0.187	0.157	0.146	0.143	1.32	1.4	1.59	0.684	0.985	0.728	0.886	0.439	0.444	0.489	0.596	0.41	0.188	0.228	0.201	0.205
NCI-H2126	0.909	0.955	0.992	0.659	1.11	1.01	1.18	1.01	0.827	0.795	0.755	0.857	0.743	0.76	0.846	0.648	0.622	0.523	0.561	0.602
NCI-H2170	0.777	0.866	0.674	0.826	0.915	0.907	0.906	0.846	0.823	0.835	0.886	0.794	0.658	0.737	0.777	0.669	0.977	0.918	1.05	1.08
NCI-H2342	0.786	0.765	0.719	0.699	0.478	0.539	0.586	0.574	0.688	0.647	0.623	0.742	0.565	0.555	0.623	0.568	0.788	0.746	0.766	0.787
NCI-H2347	0.274	0.493	0.443	0.471	0.733	0.746	0.726	0.662	0.63	0.613	0.585	0.487	0.29	0.489	0.352	0.614	0.34	0.255	0.256	0.241
NCI-H2405	0.61	0.709	0.641	0.491	0.822	0.8	0.765	0.524	1.22	1.09	1.01	0.79	0.626	0.648	0.693	0.518	0.416	0.673	0.558	0.447
NCI-H3122	0.0705	0.067	0.0822	0.0819	0.984	1.08	1.14	0.958	1.07	1.05	0.883	0.945	0.629	1.01	1.07	0.474	0.222	0.194	0.293	0.24
PC-3 [JPC-3]	0.663	0.661	0.732	0.538	1.02	0.735	0.873	0.794	1.3	0.741	0.864	0.741	0.853	0.794	0.796	0.73	0.703	0.7	0.69	0.7
PC-14	0.26	0.178	0.183	0.125	0.522	0.297	0.334	0.24	0.793	0.701	0.725	0.522	0.8	0.848	1.08	0.397	0.843	0.891	0.739	0.37
RERF-LC-KJ	1.27	1.39	1	0.918	1.01	1.03	0.997	0.914	0.817	0.763	0.706	0.485	0.588	0.533	0.486	0.231	0.927	0.778	0.784	0.566
SW 900	0.171	0.185	0.187	0.169	0.666	0.604	0.515	0.547	0.727	0.453	0.432	0.429	0.66	0.54	0.726	0.449	0.75	0.93	0.677	0.767
